Patent publication US12642786B2, “Methods, compositions and kits for treating multiple sclerosis and other disorders” (The Johns Hopkins University, priority 2018, dated 2026)
“Also recorded” adds a separate entry of the source.

Assays:
[1] = tested on: CD4+, Th1 and Th17 lymphocytes in EAE mice; assay: Flow cytometry of spinal cord in EAE mice treated from clinical score 1.0; assay type: in vivo, C57BL/6J mice; conditions: day 18 post-immunization (late peak), treatment started at score 1.0
Method: Mice were killed with pentobarbital and perfused via cardiac puncture with ice-cold HBSS without cations. Brain, spinal cord (collected using hydrostatic pressure), spleen, and lymph node tissue were isolated after perfusion and were mechanically dissociated by passing through 100-μm cell strainers. For CNS tissue, after dissociation, infiltrating mononuclear cells were separated from myelin debris using a 37/70% percoll gradient. After dissociation, spleens were incubated in ACK lysis buffer to remove red blood cell contamination. Cells were counted using a MACSQuant flow cytometer (Miltenyi Biotec).
For surface marker and intracellular cytokine staining of T cells, the cells were first restimulated with a cell stimulation mixture with protein transport inhibitors (eBioscience, catalog #00-4975-03) for 4 h in cRPMI at 37° C. They then underwent live/dead and surface marker staining as earlier. For intracellular cytokine staining, cells were permeabilized and fixed using either IC Fixation buffer for cytokine analysis (eBioscience, 00-8222-49) or FoxP3 fixation/permeabilization buffer for transcription factor analysis (eBioscience, 00-5521-00) after manufacturer recommended protocol and incubated with specific conjugated antibodies for the specified proteins in permeabilization buffer for 1 h.
Cells were analyzed by flow cytometry using a MACSQuant flow cytometer (Miltenyi Biotec). Flow data analysis was performed in FlowJo (FlowJo) or FlowLogic (Inivai).

[2] = tested on: murine peritoneal macrophages (mPMs); assay: mPM arginase-1 expression by Western blot; assay type: cell-based; conditions: IL-4 20 ng/mL
Method: Cells were lysed by sonication in RIPA buffer supplemented with protease inhibitors, and protein concentration was measured by Bradford assay. Lysates were mixed with SDS sample buffer, boiled, and resolved by SDS/PAGE. Bands were transferred to PVDF Immobilon P membranes (Millipore) using a wet transfer, blocked in TBS-T containing 5% milk, and probed overnight at 4° C. with mouse monoclonal antibody against arginase-1 (Santa Cruz Biotechnology, catalog #sc-271430, 1:500). HRP-conjugated anti-mouse secondary antibody was from Jackson ImmunoResearch. Western blots were visualized using the SuperSignal West ECL system (Thermo Scientific), followed by film exposure. Blots were then stripped using Restore Western blot stripping buffer (Thermo Scientific, catalog #21059), blocked again as earlier, and probed overnight at 4° C. with HRP-conjugated anti-actin antibody before visualization as earlier. Quantitation was performed using ImageJ software.
Mice aged 8-12 wk were injected intraperitoneally with 2 mL each of 3% sterile thioglycolate (BD Biosciences, catalog #211716) medium. […] Cells were then counted, equal numbers were plated into each well of appropriate cell culture dishes, and the cells were then incubated at 37° C. for 2-4 h to allow macrophage adhesion. […]

LPS-stimulated BMDCs = assay: BMDC cytokine secretion by ELISA; assay type: cell-based, C57BL/6J mice
Method: BMDCs were generated as described in Lutz, “An advanced culture method for generating large quantities of highly pure dendritic cells from mouse bone marrow,” 1999, J. Immunol. Methods 223:77-92, with minor modifications. Briefly, femurs were removed from 6-10-wk-old female C57BL/6J mice, cut on both ends, and marrow flushed with PBS. Bone marrow cells were then pelleted by centrifugation (500×g for 8 min), resuspended in red blood cell lysis buffer (Sigma) for 1 min, and quenched with excess PBS. After another centrifugation, cells were resuspended in complete RPMI (cRPMI) media consisting of RPMI-1640 with GlutaMAX™ supplement (Thermo Fisher Scientific) supplemented with 10% FBS, penicillin-streptomycin (Gibco), and 50 μM 2-mercaptoethanol (Sigma). On day 0, ˜2×10^6 cells were then seeded per 100-mm plate in 10 mL media containing 20 ng/mL rmGM-CSF (Peprotech). On day 3, an additional 10 mL fresh cRPMI media containing 20 ng/mL rmGM-CSF was added to each plate. On day 6, half the culture supernatant from each plate was removed and centrifuged, and the pelleted cells resuspended in 10 mL fresh cRPMI with 20 ng/mL rmGM-CSF and added back to the plates. On day 8, all nonadherent cells (representing the BMDC fraction) were collected, pelleted by centrifugation, resuspended in fresh cRPMI media with 20 ng/mL rmGM-CSF, and plated into 24-well dishes. These BMDCs were then treated overnight with or without LPS 100 ng/mL plus the indicated doses of bryo-1. The following day (day 9), these cells were then assayed by flow cytometry or cytokine ELISA.
After overnight treatment of BMDCs or mPMs with LPS 100 ng/mL±bryo-1, culture supernatants were collected and cytokine production was assayed using ELISA kits for IL-12 p70 (catalog #88-7121-22), IL-6 (catalog #88-7064-22), and IL-10 (catalog #88-7105-22) purchased from eBioscience, according to manufacturer's instructions. Plates were read at 450 nm on a tabletop plate reader.

[3] = tested on: corpus callosum remyelination; assay: Cuprizone-induced demyelination, Black-Gold II myelin staining; assay type: in vivo, C57BL/6J mice; conditions: 30 μg/kg IP every other day from re-feeding, day 8 after re-feeding
Method: Cuprizone-induced demyelination was elicited as described by Baxi et al., Glia (2017) 65:2087-098, with minor modification. Female C57BL/6J mice (8 weeks old) were fed 0.2% cuprizone for 5 weeks to induce demyelination of the corpus callosum and then returned to normal feed. The mice (n=2 per group) were then treated with either bryo-1 (30 μg/kg) or vehicle by IP injection every other day beginning on the first day of re-feeding with normal feed, and the extent of corpus callosum remyelination was assessed by Black-Gold II myelin staining on day 8 after re-feeding.

Structure (SMILES): CCC/C=C/C=C/C(=O)OC1/C(=C/C(=O)OC)CC2CC(C(C)O)OC(=O)CC(O)CC3CC(OC(C)=O)C(C)(C)C(O)(CC4C/C(=C/C(=O)OC)CC(/C=C/C(C)(C)C1(O)O2)O4)O3 (centres unmarked) [bryo-1, Bryostatin-1]
- numbers of Th1 cells in spinal cord [1]: significantly diminished numbers
- numbers of Th17 cells in spinal cord [1]: significantly diminished numbers
- total CD4+ lymphocytes in spinal cord [1]: near-significant trend (P=0.06) toward decreased
- IL-4-induced expression of arginase-1 [2]: augments expression; also recorded: potentiated
- LPS-induced secretion of IL-12 (LPS-stimulated BMDCs; BMDCs, LPS 100 ng/mL, bryo-1 10 nM, overnight): abrogated
- secretion of IL-10 (LPS-stimulated BMDCs; BMDCs, LPS 100 ng/mL, overnight): significantly augmented
- concentration with direct anti-inflammatory effects on DCs and macrophages (as low as) (LPS-stimulated BMDCs; DCs and macrophages): 10 nM
- rate of remyelination (extent of Black-Gold II staining) [3]: increased the rate of remyelination
